Source: ChEMBL document CHEMBL1201862, “PubChem BioAssay data set” (2004)
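Grown in 96-well plates, cells were treated for 48 hours with each compound at five concentrations. Insufficient inhibition: endpoint recorded as highest concentration tested. GI50 is the concentration that inhibits growth by half.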 The source made the active and inactive calls. Cut-off read from the data, not from the text of the source: active = GI50 up to about 1.1 µM and inactive = higher.

Assays:
Test in all cases: growth of human tumour cells (NCI), 48 h
A498 = tested on: A498
A549 = tested on: A549
ACHN = tested on: ACHN
CAKI-1 = tested on: CAKI-1
COLO 205 = tested on: COLO 205
HL-60 = tested on: HL-60
K562 = tested on: K562
M14 = tested on: M14
MCF7 = tested on: MCF7
MOLT-4 = tested on: MOLT-4
Malme-3M = tested on: Malme-3M
OVCAR-4 = tested on: OVCAR-4
SF-539 = tested on: SF-539
SK-MEL-28 = tested on: SK-MEL-28
SK-OV-3 = tested on: SK-OV-3
SW-620 = tested on: SW-620
TK-10 = tested on: TK-10
U-251 = tested on: U-251
UACC-62 = tested on: UACC-62
UO-31 = tested on: UO-31

Measured: GI50

Cc1ccc2nc(SCC(=O)N/N=C3\C(=O)Nc4ccccc43)n(-c3ccccc3)c(=O)c2c1
inactive: A498 14.9 µM | A549 15.2 µM | ACHN 13.8 µM | CAKI-1 18.6 µM | COLO 205 13.4 µM | HL-60 25.5 µM | K562 23.7 µM | M14 16.3 µM | MCF7 16.1 µM | MOLT-4 17.6 µM | Malme-3M 20.2 µM | OVCAR-4 13.2 µM | SF-539 5.7 µM | SK-MEL-28 15.4 µM | SK-OV-3 13.8 µM | SW-620 23.6 µM | TK-10 15.5 µM | U-251 12.3 µM | UACC-62 16.9 µM | UO-31 2.02 µM

CC(=O)NCCC1CN(C(=O)/C=C\C#C[Si](C)(C)C)c2ccccc21 (stereo not given)
inactive: A498 45.3 µM | A549 27.5 µM | ACHN 26.6 µM | CAKI-1 13.8 µM | COLO 205 4.88 µM | HL-60 23.3 µM | K562 15.3 µM | M14 13.3 µM | MCF7 5.36 µM | MOLT-4 17.3 µM | Malme-3M 13.1 µM | OVCAR-4 18.9 µM | SF-539 20.3 µM | SK-MEL-28 50.8 µM | SK-OV-3 25.3 µM | SW-620 35.2 µM | TK-10 23 µM | U-251 > 10 µM | UACC-62 8.49 µM | UO-31 26.9 µM

CNC(=O)OC(COC)CN1CCN(c2ccccc2C)CC1 (stereo not given)
inactive: A498 > 10 µM | A549 > 10 µM | ACHN > 10 µM | CAKI-1 > 10 µM | COLO 205 > 10 µM | HL-60 > 10 µM | K562 > 10 µM | M14 > 10 µM | MCF7 > 10 µM | MOLT-4 > 10 µM | Malme-3M > 10 µM | OVCAR-4 > 10 µM | SF-539 > 10 µM | SK-MEL-28 > 10 µM | SK-OV-3 > 10 µM | SW-620 > 10 µM | TK-10 > 10 µM | U-251 > 10 µM | UACC-62 > 10 µM | UO-31 > 10 µM
